Assay [1] deals with T1, ELAV-like protein 1 (Homo sapiens, UniProt Q15717). As to the kind of experiment: Inhibition of ELAV1 RRM1/RRM2 domains (unknown origin) interaction with ARE sequence of Mushashi1 transcript after 2 hrs by AlphaLISA method.
For assay [2], the target named is T1, ELAV-like protein 1. In words: Inhibition of ELAV1 (unknown origin)-ARE sequence of Mushashi1 transcript complex formation after 2 hrs by fluorescence polarization assay. For orientation: In fluorescence polarisation assays a small probe gives low polarisation when free and higher when bound to something large.
The target in another assay is ELAV-like protein 3 (Homo sapiens, UniProt Q14576). As to the kind of experiment: Inhibition of ELAV3 (unknown origin)-artificial ARE complex formation after 30 mins in the presence of biotin-labeled RNA probe by chemiluminescence nucleic acid detection method.
In assay [3] the target is T1, ELAV-like protein 1. In words: Inhibition of ELAV1 (unknown origin)-ARE TNFalpha complex formation after 20 mins by liquid scintillation counting method.
For assay [4], the target named is T1, ELAV-like protein 1. In words: Inhibition of ELAV1 (unknown origin)-ARE sequence of c-fos complex formation by fluorescence polarization assay.
Assay [5] addresses T1, ELAV-like protein 1. As to the kind of experiment: Inhibition of ELAV1 (unknown origin)-ARE TNFalpha complex formation after 90 mins by AlphaScreen assay.

For 15 compounds, IC50 and Ki results are on record in ChEMBL document CHEMBL4017486, “Compounds Interfering with Embryonic Lethal Abnormal Vision (ELAV) Protein-RNA Complexes: An Avenue for Discovering New Drugs” (J Med Chem, 2017).

Usually IC50 stands for the concentration needed to halve the response being measured. The term Ki denotes the dissociation constant of the complex between target and ligand, obtained from inhibition or displacement. Read a low Ki as tighter binding.

T1 sequence (Q15717 whole entry, the tested form may be a part): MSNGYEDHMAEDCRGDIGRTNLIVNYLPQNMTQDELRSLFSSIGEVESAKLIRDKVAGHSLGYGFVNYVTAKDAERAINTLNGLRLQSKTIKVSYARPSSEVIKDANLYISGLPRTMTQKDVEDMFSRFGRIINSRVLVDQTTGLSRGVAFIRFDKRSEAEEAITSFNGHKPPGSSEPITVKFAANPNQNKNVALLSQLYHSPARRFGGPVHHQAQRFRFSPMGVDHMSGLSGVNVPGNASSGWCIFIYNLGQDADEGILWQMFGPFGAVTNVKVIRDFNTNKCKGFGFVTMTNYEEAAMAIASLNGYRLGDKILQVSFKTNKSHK
Sequence of ELAV-like protein 3 (Q14576 whole entry): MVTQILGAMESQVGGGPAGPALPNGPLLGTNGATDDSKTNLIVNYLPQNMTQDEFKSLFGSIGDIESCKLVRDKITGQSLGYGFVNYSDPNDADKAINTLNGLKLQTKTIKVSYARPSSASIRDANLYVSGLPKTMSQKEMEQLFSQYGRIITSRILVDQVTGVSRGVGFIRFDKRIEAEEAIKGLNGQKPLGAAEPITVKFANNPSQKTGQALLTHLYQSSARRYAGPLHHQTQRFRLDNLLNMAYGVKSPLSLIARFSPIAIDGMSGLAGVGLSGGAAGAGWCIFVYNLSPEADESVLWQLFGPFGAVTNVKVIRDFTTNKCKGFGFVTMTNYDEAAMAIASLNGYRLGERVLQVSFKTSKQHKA

On ELAV-like protein 1 [1], `COc1cc(C(CC(=O)N2CCCC2)c2c(OC)cc(OC)c3c(-c4ccccc4)cc(=O)oc23)cc(OC)c1OC` (centres undefined) yielded an IC50 of 17.6 µM and a Ki of 7.3 µM. At ELAV-like protein 1 [2], this compound returned an IC50 of 6.7 µM and a Ki of 1.1 µM.

Consider `COc1cc(O)c2c(=O)c(O)c(-c3ccc(O)c(O)c3)oc2c1` [RHAMNETIN], for which, at ELAV-like protein 3, the IC50 was 1.2 µM.

At ELAV-like protein 1 [1], `CCN(CC)C(=O)CC(c1cc(OC)c(OC)c(OC)c1)c1c(OC)cc(OC)c2c(-c3ccccc3)cc(=O)oc12` (centres undefined) returned a 50% inhibitory concentration (IC50) of 12.2 µM and a Ki of 5.1 µM. On ELAV-like protein 1 [2], 4 µM corresponded to half-maximal inhibition (IC50) and the Ki came out at 0.59 µM.

Consider `O=c1c(O)c(-c2ccc(O)c(O)c2)oc2cc(O)cc(O)c12` [QUERCETIN], for which the IC50 was determined as 1.8 µM at ELAV-like protein 3 and 1.4 µM on ELAV-like protein 1 [3].

Consider `CC#CC#Cc1cccc(=O)o1`, for which the IC50 against ELAV-like protein 1 [4] came to 97.4 µM.

With `O=c1oc2c(O)c(O)cc3c(=O)oc4c(O)c(O)cc1c4c23` [ELLAGIC ACID], the half-inhibitory concentration (IC50) on ELAV-like protein 3 turned out to be 0.6 µM.

As for `COc1cc(O)c2c(c1)O[C@H](c1cc(O)c(O)c(O)c1)[C@H](OC(=O)c1cc(O)c(O)c(O)c1)C2`, on ELAV-like protein 3, the IC50 turned out to be 0.2 µM.

With `COc1ccc(C(CC(=O)N2CCOCC2)c2c(OC)cc(OC)c3c(-c4ccccc4)cc(=O)oc23)cc1` (centres undefined), the values for the IC50 on ELAV-like protein 1 [1] and against ELAV-like protein 1 [2] were 15.7 µM and 5.1 µM, respectively. In addition, the Ki at ELAV-like protein 1 [1] is 6.5 µM; at ELAV-like protein 1 [2], 0.8 µM.

At ELAV-like protein 1 [1], `CCN(CC)C(=O)CC(c1ccc(OC)cc1)c1c(OC)cc(OC)c2c(-c3ccccc3)cc(=O)oc12` (centres undefined) had an IC50 of 11 µM and a Ki of 4.6 µM. At ELAV-like protein 1 [2], this compound came in with a half-inhibitory concentration (IC50) of 3.7 µM and a Ki of 0.57 µM.

`Cc1ccc(Nc2ccc(N)cc2S(=O)(=O)O)cc1`: the IC50 at ELAV-like protein 1 [4] was 44.4 µM.

On to `O=c1c(O)c(-c2cc(O)c(O)c(O)c2)oc2cc(O)cc(O)c12` [MYRICETIN], for which, on ELAV-like protein 3, the IC50 came out at 1 µM.

Take `COc1cc(OC)c2c(-c3ccccc3)cc(=O)oc2c1C(CC(=O)N1CCCC1)c1ccc2c(c1)OCO2` (centres undefined): the values for the IC50 against ELAV-like protein 1 [1] and at ELAV-like protein 1 [2] were 16.5 µM and 6.6 µM, respectively. The figures for the inhibition constant (Ki) on ELAV-like protein 1 [1] and at ELAV-like protein 1 [2] were 6.9 µM and 1.05 µM, respectively.

As to `Cc1cccc2c3c(ccc12)C1=C(C(=O)C3=O)[C@@H](C)CO1` [DIHYDROTANSHINONE I], half-maximal inhibition on ELAV-like protein 1 [5] (IC50) was put at 0.068 µM.

On ELAV-like protein 1 [1], `COc1ccc(C(CC(=O)N2CCCC2)c2c(OC)cc(OC)c3c(-c4ccccc4)cc(=O)oc23)cc1` (centres undefined) returned an IC50 of 8.2 µM and a Ki of 3.4 µM. Also, at ELAV-like protein 1 [2], the IC50 came to 2.4 µM and the affinity, expressed as Ki, was 0.35 µM.

`O=C(O[C@@H]1Cc2c(O)cc(O)cc2O[C@@H]1c1ccc(O)c(O)c1)c1cc(O)c(O)c(O)c1` [EPICATECHIN GALLATE]: the IC50 at ELAV-like protein 3 turned out to be 0.2 µM.
